Where a chain is given by its changes, count along the chain named.
Legend:
mutant GnRHR = target: T1, mutant GnRHR (Homo sapiens, UniProt P30968, E90K); assay: Pharmacological rescue of GnRHR mutants (Example 1), IP production and agonist binding; type: cell-based
T1 construct: expressed in transfected cells; host or cells: COS-7
T1 sequence (P30968 1-328 E90K): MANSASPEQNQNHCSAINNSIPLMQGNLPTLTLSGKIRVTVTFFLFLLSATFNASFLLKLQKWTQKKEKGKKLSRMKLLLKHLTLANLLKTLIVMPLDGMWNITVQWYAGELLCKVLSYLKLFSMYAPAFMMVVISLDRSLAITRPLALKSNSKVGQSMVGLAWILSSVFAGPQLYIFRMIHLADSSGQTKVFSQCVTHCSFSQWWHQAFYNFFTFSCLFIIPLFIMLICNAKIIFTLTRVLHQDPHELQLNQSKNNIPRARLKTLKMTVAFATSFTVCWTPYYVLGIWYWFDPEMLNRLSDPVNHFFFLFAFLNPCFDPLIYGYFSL
Experimental: WT and mutant hGnRHR were separately transiently expressed in COS-7 cells using standard molecular biology methods (Leaños-Miranda et al., J. Clin. Endo. Metab., 87:4825-8, 2002). Briefly, cells were maintained in growth medium (DMEM) containing 10% fetal calf serum (FCS; Life Technologies, Grand Island, N.Y.) and 20 μg/ml gentamicin (Gemini Bioproducts, Calabasas, Calif.) in a 5% CO2 humidified atmosphere at 37° C. One hundred thousand cells/well were seeded in 24-well plates (Costar, Cambridge, Mass.). Twenty-four hours after plating, the cells were transfected with 0.05 μg DNA per well (for IP production assay) or 0.1 μg DNA per well (for saturation binding studies) using 2 μl lipofectamine in 0.25 ml OPTI-MEM containing 1% DMSO (vehicle) or 1 μg/ml of each indole, quinoline or erythromycin macrolide prepared in vehicle.
After five hours, 0.25 ml of DMEM containing 20% FCS with or without indole, quinoline or erythromycin macrolide (as indicated) was added to each well. The cells were incubated for an additional 18 hours at 37° C., then washed and fresh growth medium with (1 μg/ml) or without the therapeutic agent was added to the cells for another 28 hours at 37° C. […]
The quantification of IP production and saturation binding were determined as described previously (Huckle and Conn, Methods Enzymol. 141:149-55, 1987).
To determine the saturation binding, the cells were washed twice with warm DMEM/BSA prior to incubating with the GnRH agonist [^125I]-buserelin [D-tert-butyl-Ser^6, des-Gly^10, Pro^9, ethylamide-GnRH; specific activity, 700 μCi/μg; 230,000 cpm/0.5 ml, pH 7.4; Hoeschst-Roussel Pharmaceuticals (Somerville, N.J.); also see Marian et al., Mol. Pharmacol. 19:399-405, 1981] and nonspecific binding was measured in the presence of 1 μM GnRH (NIDDK National Hormone and Peptide Program, Bethesda, Md.). […] The sample was transferred to a glass tube and counted in a gamma counter (Packard Instruments; Downers Grove, Ill.). Specific binding was calculated by subtracting non-specific binding (binding measured in the presence of 1 μM GnRH) from total binding (no GnRH). […]

WT hGnRHR = target: T2, WT hGnRHR (Homo sapiens, UniProt P30968); assay: IP production in COS-7 cells transfected with WT hGnRHR, Buserelin dose response (FIG. 13 inset); type: cell-based; settings: COS-7 cells transfected with 100 ng of WT hGnRHR
T2 construct: expressed in transfected cells; host or cells: COS-7
T2 sequence (P30968 1-328): T1 sequence (P30968 1-328 E90K) with K90E
Experimental: For tranfections, 5×10^4 COS-7 cells were plated in 0.25 ml growth medium in 48 well Costar cell culture plates. Twenty-four hours after plating, the cells were washed once with 0.5 ml OPTI-MEM (Promega, Madison, Wis.) then transfected with 100 ng total cDNA (pcDNA3.1+without insert “empty vector” was included to bring the total cDNA to 100 ng/well, unless otherwise indicated) and 1 μl lipofectamine in 0.125 ml OPTI-MEM (room temperature), according to manufacture's instructions. For co-transfection, the cells were co-transfected with WT GnRHR (5 ng/well) and empty vector or mutant GnRHR (95 ng/well) or other GPCR cDNAs, as indicated, using 1 μl Lipofectamine (Promega, Madison, Wis.) in 0.125 ml Opti-MEM. Constant amounts of Opti-MEM were achieved by the addition of sterile milli-Q H2O to the cDNA mixtures. […]
The IP production was measured 27 hours after transfection, as described in Example 1, except that following the preloading, cells were treated for 2 hours in 0.25 ml of Buserelin (100 nM), and at the end of the incubation period, the cells were frozen and thawed in the presence of 0.5 ml of 0.1 M formic acid. Data (n≧3) was analyzed with one-way ANOVA and then paired Student's t-test (SigmaStat 3.0, Jandel Scientific Software, Chicago, Ill.; P<0.05 was considered significant). […]

Buserelin concentration giving maximal response on IP production (WT hGnRHR) | Compound | restoration of function to mutant GnRHR (mutant GnRHR)
– | COc1cc2c(cc1OC)CN(C(=O)c1cc3c(OCC[C@@H]4CCCCN4)c(-c4cc(C)cc(C)c4)c(=O)[nH]c3cc1Cl)CC2.O=C(O)C(F)(F)F [Q08, (2S)-2-(2-{[7-chloro-6-[(6,7-dimethoxy-3,4-dihydroisoquinolin-2(1H)-yl)carbonyl]-3-(3,5-dimethylphenyl)-2-oxo-1,2-dihydroquinolin-4-yl]oxy}ethyl)piperidinium trifluoroacetate] | known not to bind to or restore function to mutant protein
10^−7 M | CCNC(=O)[C@@H]1CCCN1C(=O)[C@H](CCCNC(=N)N)NC(=O)[C@H](CC(C)C)NC(=O)[C@@H](COC(C)(C)C)NC(=O)[C@H](Cc1ccc(O)cc1)NC(=O)[C@H](CO)NC(=O)[C@H](Cc1c[nH]c2ccccc12)NC(=O)[C@H](Cc1cnc[nH]1)NC(=O)[C@@H]1CCC(=O)N1 [Buserelin, D-tert-butyl-Ser^6, des-Gly^10, Pro^9, ethylamide-GnRH] | –
– | Cc1cc(C)cc(-c2[nH]c3ccc(C(C)(C)C(=O)N4CCN(C)CC4)cc3c2[C@H](C)CNCCc2ccc(C(=O)O)cc2)c1.O=C(O)C(F)(F)F [IN31b, (2S)-N-[2-(4-carboxyphenyl)ethyl]-2-[5-[1,1-dimethyl-2-(4-methylpiperazin-1-yl)-2-oxoethyl]-2-(3,5-dimethylphenyl)-1H-indol-3-yl]propan-1-aminium trifluoroacetate] | known not to bind to or restore function to mutant protein
– | CC[C@H]1OC(=O)[C@H](C)[C@@H](O[C@H]2C[C@@](C)(OC)[C@@H](O)[C@H](C)O2)[C@H](C)[C@@H](O[C@@H]2O[C@H](C)C[C@H](N(C)C)[C@H]2O)[C@](C)(O)C[C@@H](C)C(=O)[C@H](C)[C@@H](O)[C@]1(C)O [A-7662.0, Erythromycin A] | known not to bind to or restore function to mutant protein

From patent US7842470B2, “Method for pharmacoperones correction of GnRHR mutant protein misfolding” (Oregon Health & Science University, priority 2001, dated 2010)
